# Experiment: Antioxidation (absorbance at 500 nm, FeSCN method)
# Text: (Absorbance at 500 nm, using FeSCN method)
smiles,measurement,setting,value
"COc1cc(CC(C)C(C)C(=O)c2ccc(O)c(OC)c2)ccc1O (stereo not shown) [Compound 1, cinnamophilin]",antioxidation capability,"20 μM, compared with α-tocopherol at same concentration",lower than α-tocopherol at the same concentration
same,Absorbance at 500 nm,"20 μM, induce time 0, control 0.047",0.045
same,Absorbance at 500 nm,"20 μM, induce time 4, control 0.084",0.076
same,Absorbance at 500 nm,"20 μM, induce time 7, control 0.201",0.146
same,Absorbance at 500 nm,"20 μM, induce time 10, control 0.343",0.176
same,Absorbance at 500 nm,"20 μM, induce time 16",0.346
same,Absorbance at 500 nm,"20 μM, induce time 19",0.399
same,Absorbance at 500 nm,"20 μM, induce time 22",0.508
same,Absorbance at 500 nm,"20 μM, induce time 25",0.796
same,Absorbance at 500 nm,"20 μM, induce time 28",1.301
same,inhibitory effect on fatty oil peroxidation,40 μM,potential inhibitory effect on fatty oil peroxidation
same,Absorbance at 500 nm,"40 μM, induce time 0, control 0.047",0.037
same,Absorbance at 500 nm,"40 μM, induce time 4, control 0.084",0.056
same,Absorbance at 500 nm,"40 μM, induce time 7, control 0.201",0.082
same,Absorbance at 500 nm,"40 μM, induce time 10, control 0.343",0.116
same,Absorbance at 500 nm,"40 μM, induce time 16",0.156
same,Absorbance at 500 nm,"40 μM, induce time 19",0.204
same,Absorbance at 500 nm,"40 μM, induce time 22",0.256
same,Absorbance at 500 nm,"40 μM, induce time 25",0.282
same,Absorbance at 500 nm,"40 μM, induce time 28",0.349
same,Absorbance at 500 nm,"40 μM, induce time 31",0.405
same,Absorbance at 500 nm,"40 μM, induce time 34",0.453
same,Absorbance at 500 nm,"40 μM, induce time 37",0.525
same,Absorbance at 500 nm,"40 μM, induce time 40",0.687
same,antioxidation capability versus control,compared with 0.5% DMSO as control,potential antioxidation capable comparing to 0.5% DMSO as control
